The source made the active and inactive calls.
What was measured:
Type in all cases: functional, cell-based
SK-MEL-2 = assay: Growth inhibition of human SK-MEL-2 cells at 1 uM after 48 hrs by sulforhodamine B assay
DU-145 = assay: Growth inhibition of human DU145 cells at 1 uM after 48 hrs by sulforhodamine B assay
HOP-92 = assay: Growth inhibition of human HOP92 cells at 1 uM after 48 hrs by sulforhodamine B assay
Hs-578T = assay: Growth inhibition of human Hs 578T cells at 1 uM after 48 hrs by sulforhodamine B assay
SF530 = assay: Growth inhibition of human SF530 cells at 1 uM after 48 hrs by sulforhodamine B assay
HCC 2998 = assay: Growth inhibition of human HCC2998 cells at 1 uM after 48 hrs by sulforhodamine B assay
SNB-75 = assay: Growth inhibition of human SNB75 cells at 1 uM after 48 hrs by sulforhodamine B assay
KM12 = assay: Growth inhibition of human KM12 cells at 1 uM after 48 hrs by sulforhodamine B assay
A549 = assay: Growth inhibition of human A549 cells at 1 uM after 48 hrs by sulforhodamine B assay
HCT-116 = assay: Growth inhibition of human HCT116 cells at 1 uM after 48 hrs by sulforhodamine B assay
IGROV-1 = assay: Growth inhibition of human IGROV1 cells at 1 uM after 48 hrs by sulforhodamine B assay
UACC-257 = assay: Growth inhibition of human UACC257 cells at 1 uM after 48 hrs by sulforhodamine B assay
NCI-H322M = assay: Growth inhibition of human […] cells at 1 uM after 48 hrs by sulforhodamine B assay
SF-268 = assay: Growth inhibition of human SF268 cells at 1 uM after 48 hrs by sulforhodamine B assay
HL-60 = assay: Growth inhibition of human HL-60(TB) cells at 1 uM after 48 hrs by sulforhodamine B assay
Malme-3M = assay: Growth inhibition of human MALME-3M cells at 1 uM after 48 hrs by sulforhodamine B assay
RPMI-8226 = assay: Growth inhibition of human RPMI8226 cells at 1 uM after 48 hrs by sulforhodamine B assay
SF-295 = assay: Growth inhibition of human SF295 cells at 1 uM after 48 hrs by sulforhodamine B assay
MCF7 = assay: Growth inhibition of human MCF7 cells at 1 uM after 48 hrs by sulforhodamine B assay
CCRF-CEM = assay: Growth inhibition of human CCRF-CEM cells at 1 uM after 48 hrs by sulforhodamine B assay
MDA-MB-435 = assay: Growth inhibition of human MDA-MB-435 cells at 1 uM after 48 hrs by sulforhodamine B assay
BT-549 = assay: Growth inhibition of human BT549 cells at 1 uM after 48 hrs by sulforhodamine B assay
UACC-62 = assay: Growth inhibition of human UACC62 cells at 1 uM after 48 hrs by sulforhodamine B assay
U-251 = assay: Growth inhibition of human U251 cells at 1 uM after 48 hrs by sulforhodamine B assay
LOX IMVI = assay: Growth inhibition of human LOXIMVI cells at 1 uM after 48 hrs by sulforhodamine B assay
ACHN = assay: Growth inhibition of human ACHN cells at 1 uM after 48 hrs by sulforhodamine B assay
NCI-H23 = assay: Growth inhibition of human NCI-H23 cells at 1 uM after 48 hrs by sulforhodamine B assay
MOLT-4 = assay: Growth inhibition of human MOLT4 cells at 1 uM after 48 hrs by sulforhodamine B assay
SK-MEL-5 = assay: Growth inhibition of human SK-MEL-5 cells at 1 uM after 48 hrs by sulforhodamine B assay
COLO 205 = assay: Growth inhibition of human COLO205 cells at 1 uM after 48 hrs by sulforhodamine B assay
NCI-H226 = assay: Growth inhibition of human NCI-H226 cells at 1 uM after 48 hrs by sulforhodamine B assay
SW-620 = assay: Growth inhibition of human SW620 cells at 1 uM after 48 hrs by sulforhodamine B assay
PC-3 = assay: Growth inhibition of human PC3 cells at 1 uM after 48 hrs by sulforhodamine B assay
CAKI-1 = assay: Growth inhibition of human Caki1 cells at 1 uM after 48 hrs by sulforhodamine B assay
M14 = assay: Growth inhibition of human M14 cells at 1 uM after 48 hrs by sulforhodamine B assay
MDA-MB-231 = assay: Growth inhibition of human MDA-MB-231 cells at 1 uM after 48 hrs by sulforhodamine B assay
OVCAR-8 = assay: Growth inhibition of human OVCAR8 cells at 1 uM after 48 hrs by sulforhodamine B assay
K562 = assay: Growth inhibition of human K562 cells at 1 uM after 48 hrs by sulforhodamine B assay
SK-MEL-28 = assay: Growth inhibition of human SK-MEL-28 cells at 1 uM after 48 hrs by sulforhodamine B assay
HOP-62 = assay: Growth inhibition of human HOP62 cells at 1 uM after 48 hrs by sulforhodamine B assay
OVCAR-3 = assay: Growth inhibition of human OVCAR-3 cells at 1 uM after 48 hrs by sulforhodamine B assay
UO-31 = assay: Growth inhibition of human UO31 cells at 1 uM after 48 hrs by sulforhodamine B assay
HCT-15 = assay: Growth inhibition of human HCT15 cells at 1 uM after 48 hrs by sulforhodamine B assay
EKVX = assay: Growth inhibition of human EKVX cells at 1 uM after 48 hrs by sulforhodamine B assay
A498 = assay: Growth inhibition of human A498 cells at 1 uM after 48 hrs by sulforhodamine B assay
T47D = assay: Growth inhibition of human T47D cells at 1 uM after 48 hrs by sulforhodamine B assay
NCI-H522 = assay: Growth inhibition of human NCI-H522 cells at 1 uM after 48 hrs by sulforhodamine B assay
TK-10 = assay: Growth inhibition of human TK10 cells at 1 uM after 48 hrs by sulforhodamine B assay
SN12C = assay: Growth inhibition of human SN12C cells at 1 uM after 48 hrs by sulforhodamine B assay
786-0 = assay: Growth inhibition of human 786-0 cells at 1 uM after 48 hrs by sulforhodamine B assay
SF-539 = assay: Growth inhibition of human SF539 cells at 1 uM after 48 hrs by sulforhodamine B assay
OVCAR-4 = assay: Growth inhibition of human OVCAR4 cells at 1 uM after 48 hrs by sulforhodamine B assay
NCI-H460 = assay: Growth inhibition of human NCI-H460 cells at 1 uM after 48 hrs by sulforhodamine B assay
HT-29 = assay: Growth inhibition of human HT-29 cells at 1 uM after 48 hrs by sulforhodamine B assay
SR = assay: Growth inhibition of human SR cells at 1 uM after 48 hrs by sulforhodamine B assay
MDA-MB-468 = assay: Growth inhibition of human MDA-MB-468 cells at 1 uM after 48 hrs by sulforhodamine B assay
RXF 393 = assay: Growth inhibition of human RXF393 cells at 1 uM after 48 hrs by sulforhodamine B assay
NCI/ADR-RES = assay: Growth inhibition of human NCI/ADR-RES cells at 1 uM after 48 hrs by sulforhodamine B assay

Measured: growth inhibition (GI)

Nc1ncnc2c1N=C1c3ccccc3CCC1C(c1ccc(F)cc1)N2 (stereo unspecified)
active: all assays above

Nc1ncnc2c1N=C1c3ccccc3CCC1C(c1ccc(Cl)cc1)N2 (stereo unspecified)
active: all assays above

From ChEMBL document CHEMBL1177848, “Synthesis of novel 6,6a,7,8-tetrahydro-5H-naphtho[1,2-e]pyrimido[4,5-b][1,4]diazepines under microwave irradiation as potential anti-tumor agents” (2010)
